In patent publication US20090111847A1, “PREPARATION METHOD AND USE OF COMPOUNDS HAVING HIGH INSECTICIDAL ACTIVITIES” (priority 2006, published 2009):

Tests used:
[1] = test system: Aphis craccivora; assay: Insecticidal activity against Aphis craccivora by immersing (mortality after 24 hours); assay type: in vivo; conditions: for mortality at 500 ppm: Aphis craccivora, 24 h, read-out: Mortality (%) (500 ppm) Aphis craccivora; for Mortality (%) (500 ppm) Aphis craccivora: in vivo
Protocol: Aphis, which belongs to Homoptera and has a piercing-sucking mouthpart, is a common insect for agricultural plant. Aphis craccivora was tested by the way of immersing.
Test method: exactly weighed various samples were independently added to N,N-dimethylformamide to form a 10 g/L stock solution. The mixture was diluted with 0.2 mL/L aqueous Triton X-100 solution to a concentration of 500 ug/mL. After stably sucking on bean sprout, the adult aphis without wings together with bean sprout was dipped into the dilution of 500 ug/mL, 100 ug/mL, 50 ug/mL, 25 ug/mL, 12.5 ug/mL, 6.25 ug/mL (LD50 was calculated), taken out after 5 seconds, and the excess dilution was sucked out with bibulous paper and the adult aphis without wings was incubated in clean vessel at a constant temperature of 23° C. Each concentration was repeated for 3 times and the control group contained 0.2 mL/L aqueous Triton X-100 solution. The number of killed aphis was counted after 24 hours to calculate the mortality.

[2] = test system: Nilaparvata lugens; assay: Insecticidal activity against Nilaparvata lugens by spraying (mortality after 24 hours); assay type: in vivo; conditions: for mortality at 500 ppm: Nilaparvata lugens, 24 h, read-out: Mortality (%) (500 ppm) Nilaparvata lugens; for Mortality (%) (500 ppm) Nilaparvata lugens: spraying 2 ml, counted after 24 hours
Protocol: Plant hopper, which belongs to Homoptera and has a piercing-sucking mouthpart, is a common insect for agricultural plant. Nilaparvata lugens was tested by the way of spraying.
Test method: the compound to be tested was exactly formulated into a solution having a certain concentration and clean water was used as a blank control. Each process was repeated for 3 tumblers (3 times). 2 ml of solution was sprayed uniformly to each tumbler by a mini manual sprayer. 10 Nilaparvata lugens were introduced to every sink 6 hours before spraying. Three series of experiments were conducted. The number of killed Nilaparvata lugens was counted after 24 hours to calculate the mortality.

Row | SMILES | mortality at 500 ppm [1] [%] | mortality at 500 ppm [2] [%] | Mortality (%) (500 ppm) Aphis craccivora [1] | Mortality (%) (500 ppm) Nilaparvata lugens [2]
1 | COC1CC([N+](=O)[O-])=C2N(Cc3ccc(Cl)nc3)CCN2C1O (centres unmarked) [Compound 46, 1-((6-chloropyridin-3-yl)methyl)-6-methoxy-8-nitro-1,2,3,5,6,7-hexahydroimidazo[1,2-a]pyridin-5-ol] | 100 | 73 |  | 
2 | CC1CC([N+](=O)[O-])=C2N(Cc3cnc(Cl)s3)CCN2C1O (centres unmarked) [Compound 21] |  |  | 90 | 100
3 | CC(C)OC1CC(C)C([N+](=O)[O-])=C2N(Cc3ccc(Cl)nc3)CCN21 (centres unmarked) [Compound 6] |  |  | 100 | 100
4 | CCCC1C(C)C([N+](=O)[O-])=C2N(Cc3ccc(Cl)nc3)CCN2C1O (centres unmarked) [Compound 34] |  |  | 95 | 90
5 | CC1CC([N+](=O)[O-])=C2N(Cc3ccc(Cl)nc3)CCN2C1O (centres unmarked) [Compound 18, 1-((6-chloropyridin-3-yl)methyl)-6-methyl-8-nitro-1,2,3,5,6,7-hexahydroimidazo[1,2-a]pyridin-5-ol] | 98 | 100 |  | 
6 | COC1CC(c2ccccc2)C([N+](=O)[O-])=C2N(Cc3ccc(Cl)nc3)CCN21 (centres unmarked) [Compound 39] |  |  | 45 | 0
7 | CCC1CC(OC(C)C)N2CCN(Cc3ccc(Cl)nc3)C2=C1[N+](=O)[O-] (centres unmarked) [Compound 23] |  |  | 65 | 95
8 | CCCC1CC(O)N2CCN(Cc3ccc(Cl)nc3)C2=C1[N+](=O)[O-] (centres unmarked) [Compound 24] |  |  | 97 | 89
9 | CCOC1CC(C)C([N+](=O)[O-])=C2N(Cc3ccc(Cl)nc3)CCN21 (centres unmarked) [Compound 3, 1-((6-chloropyridin-3-yl)methyl)-5-ethoxy-7-methyl-8-nitro-1,2,3,5,6,7-hexahydroimidazo[1,2-a]pyridine] | 100 | 100 |  | 
10 | CCCC1CC([N+](=O)[O-])=C2N(Cc3ccc(Cl)nc3)CCN2C1OCC (centres unmarked) [Compound 29] |  |  | 100 | 97
11 | CC1C(O)N2CCN(Cc3ccc(Cl)nc3)C2=C([N+](=O)[O-])C1(C)C (centres unmarked) [Compound 36] |  |  | 94 | 97
12 | CCOC1C(C)CC([N+](=O)[O-])=C2N(Cc3ccc(Cl)nc3)CCN21 (centres unmarked) [Compound 19] |  |  | 100 | 100
13 | CCCOC1C(C)CC([N+](=O)[O-])=C2N(Cc3ccc(Cl)nc3)CCN21 (centres unmarked) [Compound 20] |  |  | 86 | 98
14 | CC1CC(OCC(F)(F)F)N2CCN(Cc3ccc(Cl)nc3)C2=C1[N+](=O)[O-] (centres unmarked) [Compound 4] |  |  | 100 | 100
15 | CCCC1CC([N+](=O)[O-])=C2N(Cc3ccc(Cl)nc3)CCN2C1O (centres unmarked) [Compound 28] |  |  | 100 | 96
16 | CCOC1CC([N+](=O)[O-])=C2N(Cc3ccc(Cl)nc3)CCN2C1O (centres unmarked) [Compound 47] |  |  | 98 | 91
